In ChEMBL document CHEMBL1143445, “Highly cytotoxic and neurotoxic acetogenins of the Annonaceae: new putative biological targets of squamocin detected by activity-based protein profiling” (Bioorg Med Chem Lett, 2008):
Activity calls are given as the source filed them. The rule behind the calls is not given here.

How the values were obtained:
[1] = molecular target: COP9 signalosome complex subunit 7b (Homo sapiens) (UniProt Q9H9Q2); experiment: Binding affinity to COP9 signalosome complex subunit 7b in human Jurkat cells at 10 uM after 24 hrs by 2D electrophoresis; format: cell-based
Chain of COP9 signalosome complex subunit 7b (Homo sapiens) (Q9H9Q2 whole entry, one chain of several): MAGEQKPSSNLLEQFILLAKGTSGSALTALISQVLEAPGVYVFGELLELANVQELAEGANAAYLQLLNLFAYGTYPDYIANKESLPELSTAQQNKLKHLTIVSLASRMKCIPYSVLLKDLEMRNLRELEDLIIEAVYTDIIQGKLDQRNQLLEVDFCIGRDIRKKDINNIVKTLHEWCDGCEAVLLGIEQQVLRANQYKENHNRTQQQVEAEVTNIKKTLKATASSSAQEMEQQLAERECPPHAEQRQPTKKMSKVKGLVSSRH

[2] = molecular target: Succinate dehydrogenase [ubiquinone] flavoprotein subunit, mitochondrial (Homo sapiens) (UniProt P31040); experiment: Binding affinity to flavoprotein subunit of succinate dehydrogenase in human Jurkat cells at 10 uM after 24 hrs by 2D electrophoresis; format: cell-based
Chain of Succinate dehydrogenase [ubiquinone] flavoprotein subunit, mitochondrial (Homo sapiens) (P31040 whole entry): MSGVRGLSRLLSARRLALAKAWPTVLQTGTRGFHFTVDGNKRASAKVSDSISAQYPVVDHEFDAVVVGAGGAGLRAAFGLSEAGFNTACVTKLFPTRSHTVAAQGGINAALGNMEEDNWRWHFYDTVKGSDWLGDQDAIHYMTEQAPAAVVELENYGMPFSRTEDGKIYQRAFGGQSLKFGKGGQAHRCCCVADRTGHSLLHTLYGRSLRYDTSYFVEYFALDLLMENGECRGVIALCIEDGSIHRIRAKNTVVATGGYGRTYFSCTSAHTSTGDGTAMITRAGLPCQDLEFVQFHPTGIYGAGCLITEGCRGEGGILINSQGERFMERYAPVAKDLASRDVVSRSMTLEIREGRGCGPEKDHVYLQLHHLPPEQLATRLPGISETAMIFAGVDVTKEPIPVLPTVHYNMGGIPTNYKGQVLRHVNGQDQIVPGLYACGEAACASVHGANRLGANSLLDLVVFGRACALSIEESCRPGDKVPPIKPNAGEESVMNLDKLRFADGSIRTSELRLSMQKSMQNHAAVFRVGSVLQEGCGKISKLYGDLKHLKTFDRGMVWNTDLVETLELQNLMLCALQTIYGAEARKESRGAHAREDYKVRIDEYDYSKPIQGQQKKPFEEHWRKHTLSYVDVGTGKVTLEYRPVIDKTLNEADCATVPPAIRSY

[3] = molecular target: Protein disulfide-isomerase (Homo sapiens) (UniProt P07237); experiment: Binding affinity to disulfide isomerase in human Jurkat cells at 10 uM after 24 hrs by 2D electrophoresis; format: cell-based
Chain of Protein disulfide-isomerase (Homo sapiens) (P07237 18-508 limits assumed): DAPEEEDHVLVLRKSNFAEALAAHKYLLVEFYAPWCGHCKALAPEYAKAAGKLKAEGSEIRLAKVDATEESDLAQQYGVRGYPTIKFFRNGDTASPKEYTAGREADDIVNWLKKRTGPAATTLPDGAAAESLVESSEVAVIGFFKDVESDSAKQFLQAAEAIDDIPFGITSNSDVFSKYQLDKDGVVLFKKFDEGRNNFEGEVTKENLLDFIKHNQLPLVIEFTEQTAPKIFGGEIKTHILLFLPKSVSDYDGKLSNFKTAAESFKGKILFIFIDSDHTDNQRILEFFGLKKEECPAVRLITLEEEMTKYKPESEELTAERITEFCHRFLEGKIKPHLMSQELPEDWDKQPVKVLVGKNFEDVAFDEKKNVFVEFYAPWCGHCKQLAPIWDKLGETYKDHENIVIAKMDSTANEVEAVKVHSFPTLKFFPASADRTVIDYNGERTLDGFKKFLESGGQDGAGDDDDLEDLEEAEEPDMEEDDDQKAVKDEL

[4] = Drug uptake in mitochondria of human HeLa cells assessed as intracellular localization after 6 hrs; format: ADME
[5] = molecular target: T1, Glutathione S-transferase omega-1 (Homo sapiens) (UniProt P78417); experiment: Binding affinity to glutathione transferase omega 1 in human Jurkat cells at 10 uM after 24 hrs by 2D electrophoresis; format: cell-based
T1 sequence (whole entry): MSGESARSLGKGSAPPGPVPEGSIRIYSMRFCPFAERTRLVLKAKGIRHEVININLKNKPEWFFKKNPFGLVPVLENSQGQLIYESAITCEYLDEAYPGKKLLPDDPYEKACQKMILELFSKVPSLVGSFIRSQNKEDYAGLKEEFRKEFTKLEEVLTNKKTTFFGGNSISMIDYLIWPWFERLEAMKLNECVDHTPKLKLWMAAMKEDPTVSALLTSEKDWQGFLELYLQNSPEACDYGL

SMILES: CCCCCC[C@H](CCC[C@H](O)[C@H]1CC[C@@H]([C@H]2CC[C@@H]([C@H](O)CCCCCCCCCCCC3=C[C@H](C)OC3=O)O2)O1)n1cc(CCc2ccc3c(c2)Oc2cc(O)ccc2C32OC(=O)c3ccccc32)nn1 (stereo partly specified)
- Activity [1]: Active
- Activity [2]: Active
- Activity [3]: Active
- Activity [4]: 71%
- Activity [5]: Active

SMILES: CCCCCC[C@H](O)CCC[C@H](O)[C@H]1CC[C@@H]([C@H]2CC[C@@H]([C@H](O)CCCCCCCCCCCn3cc(COc4ccc5c(c4)Oc4cc(O)ccc4C54OC(=O)c5ccccc54)nn3)O2)O1 (stereo partly specified)
- Activity [4]: 62%
